Data published in PubChem BioAssay AID2305 (GlaxoSmithKline (GSK), 2010).
Several values for one entry are separate records, joined by “and”; a condition that tells them apart may be missing. Identical values can stand only once.

tested on: P. falciparum 3D7 growth, pLDH absorbance; assay: P. falciparum 3D7 growth inhibition, dose response, strain 3D7 (AID 2305)

| Structure (SMILES) | IC50 |
| --- | --- |
| Cc1cc(C)c(NC(=O)NC2CCN(CCCCCNC(=O)/C=C/c3ccc(Cl)c(Cl)c3)CC2)c(C)c1 | 800 nM |
| CN(C)CCCOc1ccc(CN2CCC(c3c[nH]c4ccc(NCC5CCCCC5)cc34)CC2)cc1 | 680 nM |
| CC1CCN(CC[C@H]2CCCN2S(=O)(=O)c2cccc(NC(=O)c3ccc(-c4ccccc4)cc3)c2)CC1 | 1260 nM |
| Cc1cccc(C)c1C1CCN(C2CCC(NC(=O)/C=C/c3ccccc3)CC2)CC1 (stereo unspecified) | 580 nM |
| O=C(C=Cc1ccc(Br)cc1)N1CCC(CCN2CCC(c3c[nH]c4ccccc34)CC2)CC1 | 920 nM |
| Cc1cc(C(=O)NCc2ccc(-c3c(C)noc3C)cc2)n(-c2ccc(Cl)cc2)n1 | 530 nM |
| Cn1nccc1C(=O)NCCNCc1cccc(-c2cccc(-c3nc4ccc(F)cc4[nH]3)c2)c1 | 260 nM |
| Cc1c(C)c2c(c(C)c1O)CC[C@@](C)(C(=O)N1CCC(CN3CCC(c4c[nH]c5ccccc45)CC3)CC1)O2 | 660 nM |
| CN1CCCC(OC(=O)c2ccccc2)C1 (stereo unspecified) | 760 nM |
| COc1c(C2CCN(CCCCNC(=O)c3ccc(C)c(-c4ccc(C(F)(F)F)cc4)c3)CC2)ccc2c1CCCC2 | 880 nM |
| COc1ccc(-c2cccc(NC(=O)c3ccc(Cl)cc3)c2)cc1CN1CCCC1 | 780 nM |
| CN1CCN(CCCN(Cc2csc(-c3ccc(CNCc4ccccc4)cc3)n2)S(=O)(=O)c2ccc(F)cc2)CC1 | 860 nM |
| CCCc1c(Cl)cc(CNCCCNc2nc3ccncc3[nH]2)cc1Cl | 740 nM |
| CSc1ccc(NC(=O)Nc2cc(C)nc3ccccc23)cc1 | 710 nM |
| CNCCNCc1ccc(-c2ccc(-c3nc4ccccc4[nH]3)s2)cc1 | 860 nM |
| COc1ccc(C(=O)N2CCN(c3ccc([N+](=O)[O-])c(NC4CC4)c3)CC2)cc1Br | 800 nM |
| COc1ccccc1Oc1c(N(C)S(=O)(=O)c2ccc(C(C)C)cc2)nc(C(F)(F)F)nc1N(C)S(=O)(=O)c1ccc(C(C)C)cc1 | 850 nM |
| Cc1ccc(-c2ccc3c(c2)C=C(C(=O)NC2CCN(CCNC(=O)c4cccc(C(F)(F)F)c4)CC2)CCC3)cc1 | 510 nM |
| COc1ccc(CNC2CCN(C)CC2)cc1-c1ccc(S(=O)(=O)NCc2ccccc2)s1 | 230 nM |
| CCOc1cc(C(=O)NCCN(C(C)C)C(C)C)ccc1-c1nc2ccc(Cl)cc2[nH]1 | 780 nM |
| Cc1cc(CN2CCN(CCOC(c3ccccc3)c3ccccc3)CC2)ccc1O | 930 nM |
| c1cc(CNc2ncc(-c3ccsc3)c(-c3nccs3)n2)ccn1 | 360 nM |
| Cc1cc(N2Cc3ccccc3C2)nc(Nc2ccc(S(=O)(=O)N3CCOCC3)cc2)n1 | 1110 nM |
| COc1cc2nc(N3CCC(CNC(=O)c4ccc(-c5ccc(C(=O)N(C)C)cc5C)cc4)CC3)nc(N3CCN(C)CC3)c2cc1OC | 1230 nM |

| Structure (SMILES) | IC50 |
| --- | --- |
| CC[C@H]1CN2CC[C@@H]1C[C@@H]2[C@@H](O)c1cc(-c2ccc(F)cc2)nc2ccc(OC)cc12 | 110 nM |
| Cc1ccc(-c2csc(C)n2)c(C)c1 | 990 nM |
| CC(=O)C1=NN(c2ccc(Cl)cc2)C(c2cccs2)N1c1ccccc1 (stereo unspecified) | 400 nM |
| CC(C)CNCc1ccc(-c2cccc(CN(C(=O)NCCc3ccccc3)C3CCN(Cc4ccccc4)CC3)c2)cc1 | 580 nM |
| COCCN1CCN(Cc2ccc(-c3ccc(-c4nc5ccc(F)cc5[nH]4)cc3)cc2)CC1 | 720 nM |
| COc1ccc(NC(=O)N2CCc3ccc(OCCN(C(C)C)C(C)C)cc32)cc1C(F)(F)F | 970 nM |
| N#Cc1ccc(N2C[C@@H](OCc3ccccc3)C[C@H]2C(=O)NCCC(c2ccccc2)c2ccccc2)c2ccccc12 | 860 nM |
| Cc1cc(N2CCC(N(C)C)C2)nc(Nc2ccc(Cl)cc2)n1 (stereo unspecified) | 520 nM |
| CCCCCCN=C(N)c1ccc(OCCCCCOc2ccc(C(N)=NCCCCCC)cc2)cc1 | 310 nM |
| CS(=O)(=O)c1ccc(-c2cnc(N)c(-c3cccc(CO)c3)c2)cc1 | 940 nM |
| Cc1onc(-c2ccc(Cl)cc2)c1-c1ccnn1S(=O)(=O)c1ccc(Cl)cc1 | 710 nM |
| O=[N+]([O-])c1ccc(Oc2c(Cl)cc(S(=O)(=O)NC3CCC(CN4CCC(c5c[nH]c6ccccc56)CC4)CC3)cc2Cl)c(Cl)c1 (stereo unspecified) | 760 nM |
| CCN(CCCN1CCCCC1)c1cc(C)nc(Nc2ccc(Br)cc2F)n1 | 550 nM |
| COc1ccc2ncc(F)c(CCN3CCC(CNC(=O)C(=O)c4c[nH]c5ccccc45)CC3)c2n1 | 390 nM |
| O=C(/C=C/c1ccc(C(F)(F)F)cc1)NCCCCCN1CCC(c2c[nH]c3ccccc23)CC1 | 680 nM |
| NCCNc1ccc([N+](=O)[O-])cc1C(=O)Nc1cccc(Cl)c1 | 1260 nM |
| COc1cccc(C(=O)C2CC2CN2CC=C(c3c(C)[nH]c4ccccc34)CC2)c1 (stereo unspecified) | 710 nM |
| O=C(NCCCCN1CC=C(c2ccc3c(c2OCC2CC2)CCCC3)CC1)c1ccc(-c2ccc(C(F)(F)F)cc2)cc1 | 540 nM |
| CC(=O)Nc1ccc(S(=O)(=O)Nc2ccc(Nc3nc(C)cc(N4CCCCC4)n3)cc2)cc1 | 780 nM |
| Cc1cccc(Cl)c1S(=O)(=O)N1CCCCC(c2ccc(C(F)(F)F)cc2)=N1 | 220 nM |
| COc1ccc2ncc(C#N)c(CCN3CCC(NCc4ccc5c(c4)NC(=O)CO5)CC3)c2c1 | 590 nM |
| CCOc1c(CCNCCCCNCCc2ccc3ccccc3c2OCC)ccc2ccccc12 | 600 nM |
| NC(N)=NC(=O)Nc1cc(F)c(Cl)c(Cl)c1 | 500 nM |
| Cc1nnc2sc(-c3cccc(NC(=O)c4ccc(N5CCCCC5)c([N+](=O)[O-])c4)c3)nn12 | 1300 nM |

| Structure (SMILES) | IC50 |
| --- | --- |
| Cc1cccc2[nH]c(-c3ccc(-c4cccc(CNCCN5CCNCC5)c4)cc3)nc12 | 1230 nM |
| O=C(/C=C/c1ccc(Cl)c(Cl)c1)NCCCCCN1CCC(NC(=O)NC2CCCC2)CC1 | 630 nM |
| CCc1c[nH]c2c(N3CCCC3=O)cc(C(=O)N[C@@H](Cc3ccccc3)[C@H](O)CNC(C)(C)c3cccc(C(F)(F)F)c3)cc12 | 120 nM |
| Cc1ccc(CN2CCC(C(=O)Nc3ccc(-c4cc5ccccc5[nH]4)cc3)CC2)o1 | 1420 nM |
| Cc1cccc2[nH]c(-c3cccc(-c4cccc(CN5CCN(c6ccc(C#N)cn6)CC5)c4)c3)nc12 | 1160 nM |
| O=C(/C=C/c1ccc(Br)cc1)NCCCCCN1CCC(c2c[nH]c3ccccc23)CC1 | 720 nM |
| COc1cccc(C2CCN(CCN3CCC(NC(=O)c4ccc(-c5ccc(C(F)(F)F)cc5)cc4)CC3)CC2)c1 | 200 nM |
| CCCCCCN1CCN(Cc2cccc(NC(=O)c3ccc(Cl)c(Cl)c3)c2)CC1 | 610 nM |
| Oc1ccc(CCNc2nc(NCCOc3ccccc3-c3ccccc3)nc(N3CCNCC3)n2)cc1 | 1040 nM |
| CC(Oc1ccc(Cl)cc1Cl)c1nc(-c2ccc(NC(=O)c3ccco3)cc2)no1 (stereo unspecified) | 900 nM |
| COc1cc(Cc2cnc(N)nc2N)cc(OC)c1OC | 750 nM |
| Cc1ccc(-c2nnc(Nc3ccc(OCC(N)=O)cc3)c3ccccc23)cc1S(=O)(=O)NCC1CCCO1 (stereo unspecified) | 750 nM |
| CC(Cc1ccc(OCCN2CCN(c3cccc(Cl)c3)CC2)cc1)NCC(O)c1cccc(Cl)c1 (stereo unspecified) | 1210 nM |
| O=C(Nc1ccc(Cn2ncc(N3CCCNCC3)c(Cl)c2=O)cc1)Nc1cc(C(F)(F)F)cc(C(F)(F)F)c1 | 590 nM |
| CC(C)(C)OC(=O)NCC(=O)N(Cc1ccccc1)Cc1ccccc1 | 120 nM |
| CCN(CC)CCN(Cc1ccc(-c2ccc(C(F)(F)F)cc2)cc1)C(=O)Cn1c(CCc2cccc(F)c2F)nc(=O)c2cccnc21 | 730 nM |
| c1ccc2[nH]c(-c3ccc(-c4ccc(CNCCc5ccncc5)cc4)s3)nc2c1 | 160 nM |
| O=C(C=Cc1ccc(F)cc1)NC1CCC(CCN2CCc3ccc(-c4cnccn4)cc3CC2)CC1 (stereo unspecified) | 690 nM |
| OCCNc1nc(Nc2ccccc2)nc2ccccc12 | 130 nM |
| CCOC(=O)N1NC(=O)N(c2ccccc2)C1(c1ccccc1)c1ccccc1 | 700 nM |
| COc1ccc(NC(=O)Nc2ccc(-c3ccc(-c4nc5ccccc5[nH]4)cc3)cc2)cc1 | 510 nM |
| O=C(Nc1cccc(-c2nn3ncccc3c2-c2ccnc(Nc3cccnc3)n2)c1)c1c(F)cccc1F | 530 nM |
| CCn1ncc(Cl)c1CN(C)S(=O)(=O)c1ccc(Br)cc1 | 1020 nM |
| CCCC(C)Nc1nc(C)cc(N[C@@H](CC(C)C)C(=O)NCc2ccc(C)cc2)n1 (stereo partly specified) | 1010 nM |

| Structure (SMILES) | IC50 |
| --- | --- |
| CC(OC(=O)c1ccc(C(=O)NCC2CC2)cc1)C(C)(C)C (stereo unspecified) | 790 nM |
| O=C(NC1CCN(Cc2ccc3c(c2)OCCO3)CC1)c1ccc(-c2cccc(Cl)c2)s1 | 1910 nM |
| CCOC(=O)C(C(C)=O)C(c1ccccc1)C(C(C)=O)C(=O)OCC (stereo unspecified) | 750 nM |
| N#CCOc1c(C2CCN(CCCCNC(=O)c3ccc(-c4ccc(C(F)(F)F)cc4)cc3)CC2)ccc2c1CCCC2 | 760 nM |
| CN1CCC(N2CCC(Oc3cccc(C(=O)NCCCC4CCCC4)c3)CC2)CC1 | 840 nM |
| Cn1cnc(CCNC(=O)c2ccc(-c3ccc(-c4nc5ccc(F)cc5[nH]4)cc3)cc2)c1 | 870 nM |
| c1ccc(-c2ccc(-c3csc(Nc4ccncc4)n3)cc2)cc1 | 1010 nM |
| O=C(NNC(=O)c1ccc(CCN2CCC(c3nc(COCC(F)(F)F)c(-c4ccc(F)cc4)o3)CC2)cc1)Nc1ccc(Oc2ccccc2)cc1 | 710 nM |
| Fc1ccc2nc(-c3cccc(-c4ccc(CN5CCCCC5)cc4)c3)[nH]c2c1 | 160 nM |
| CCCc1cc(OC)c(CC2c3cccc(O)c3CCN2C)cc1OC (stereo unspecified) | 300 nM |
| Oc1c(C(Nc2ccccn2)c2ccco2)cc(Cl)c2cccnc12 (stereo unspecified) | 1010 nM |
| COc1cc(F)c2ncc(C#N)c(CCN3CCC(NCc4ccc5c(c4)OCCO5)CC3)c2c1 | 430 nM |
| CC(=O)c1ccc(NC(=O)Nc2ccc(N(C)c3ccnc(Nc4cccc(CS(C)(=O)=O)c4)n3)cc2)cc1 | 120 nM |
| CC1CC(NCCCNc2cc(=O)c3ccccc3[nH]2)c2cc(Cl)c(Cl)c(Cl)c21 (stereo unspecified) | 720 nM |
| O=C(Nc1ccccc1O)C1CCN(c2ncnc3cc(-c4ccc(F)cc4)sc23)CC1 | 870 nM |
| CC(C)(C)c1ccc2nccc(Nc3cccc(O)c3)c2c1 | 970 nM |
| Cc1nc(N=C(N)N)nc2cc3c(cc12)CCC3 | 920 nM |
| O=C(Nc1ccccc1C(F)(F)F)NC1CCC(CN2CCC(c3c[nH]c4ccccc34)CC2)CC1 (stereo unspecified) | 950 nM and 780 nM |
| OC(CNc1ccnc(Nc2cccc(Cl)c2)n1)c1ccccc1C(F)(F)F (stereo unspecified) | 900 nM |
| COc1cc2nc(NCCCO)nc(Nc3ccc(Oc4ccccc4)cc3)c2cc1OC | 140 nM |
| COc1cccc(CCc2ccc(O)c3c2C[C@H]2C[C@H]4[C@H](N(C)C)C(=O)C(C(N)=O)=C(O)[C@@]4(O)C(=O)C2=C3O)c1 | 850 nM |
| O=C(Nc1ccc(N2CCN(Cc3ccccc3Cl)CC2)cc1)c1ccc([N+](=O)[O-])o1 | 970 nM |
| CCOc1ccc2c(NN=Cc3c4ccccc4cc4ccccc34)cc(C)nc2c1 | 1070 nM |
| Cc1[nH]nc2ccc(-c3ccc4nccc(N5CCC(N)CC5)c4c3)cc12 | 590 nM |
